According to PMC8791944, “GLUT3 inhibitor discovery through in silico ligand screening and in vivo validation in eukaryotic expression systems” (Scientific Reports, 2022):

Experiments:
[1] = system: BeWo (choriocarcinoma) cells; assay: MTT cancer cell viability assay, BeWo; type: cell-based; conditions: Homo sapiens, 48 h
Procedure: (§1) A possible therapeutic application of GLUT3 inhibitors is in oncology, especially for cancers in which GLUT3 is a poor prognosis marker. We tested the effect of GLUT3 inhibitors on the cell viability of several different cancer lines: myeloid leukemia (HL60 and U937), lung cancer (A549), colorectal adenocarcinoma (Caco-2), breast cancer (MCF7), hepatocellular carcinoma (HepG2), and choriocarcinoma (BeWo) cells. GLUT3 inhibitors, at five different concentrations, ranging from 2 to 100 µM, were incubated with cancer cells for 48 h. Then, cell viability was assessed with the MTT assay. […] G3iC and G3iD also affected the leukemia cell lines but at double the concentrations of G3iB and G3iE. […] G3iB had some cytotoxic activity (CC50 < 50 µM) against the highest number of cancer cell lines (HL60, U937, A549, HepG2, and MCF7).
(§2) Cancer cell viability in the presence of GLUT3 inhibitors was assayed using the MTT Cell Viability Kit (Biotium Inc, Freemont, CA) according to manufacturer’s instructions. Cancer cells were grown in the corresponding medium, at 37 °C and 5% CO2 in a humidified incubator. The media (Gibco) for leukemia cells (HL60 and U937), A549, MCF7, BeWo, and HepG2 cells were RPMI 1640, Ham’s F-12K, DMEM:F-12, Ham’s F-12K, and EMEM, respectively, all supplemented with 10% (v/v) fetal bovine serum (HyClone). Caco-2 cells were grown in EMEM supplemented with 20% (v/v) fetal bovine serum. Cells were detached from the culture flasks with Accutase (Innovative Cell Technologies, Inc., San Diego, CA) according to manufacturer’s instructions. Cells were seeded in 96-well plates, at a density of ~ 30,000 cells/well (in 100 µl fresh media) and incubated with varying concentrations of GLUT3 inhibitors for 48 h, at 37 °C and 5% CO2 in a humidified incubator. The inhibitors were dissolved in DMSO, at 100× the final concentration, so that 1 µl of the stock inhibitor concentration was added per well, making the final DMSO concentration 1% (v/v). Therefore, controls for 100% cell viability were cells with 1% (v/v) DMSO without the inhibitors. Controls for 0% cell viability were cells treated with 0.3% (v/v) Tween 20. For MTT assay, 10 µl of MTT reagent was added in each well followed by 3–4 h incubation at 37 °C and 5% CO2 in a humidified incubator. After thoroughly mixing in 200 µl DMSO in each well, the plates were put into a plate reader (BioTek Synergy H1), and the absorbances at 570 nm and 630 nm were measured with Gen5 program (BioTek Inc.). The experimental values represent Abs570 nm-Abs630 nm with each inhibitor condition and control being the average of three wells.
(§3) Supplementary Figure S8. Effect of GLUT3 inhibitors on the viability of various cancer cell lines. Cell viability was determined by MTT assay in A549 (lung cancer), BeWo (choriocarcinoma), Caco-2 (colon cancer), HepG2 (liver cancer), HL-60 (leukemia), MCF7 (breast cancer), and U937 (histiocytic lymphoma) cell lines. GLUT3 inhibitors at concentrations of 2, 5, 10, 20, 50, and 100 µM were incubated with cells in 96-well plates for 48 hours before the addition of the MTT reagent.

[2] = system: MCF7 (breast cancer) cells; assay: MTT cancer cell viability assay, MCF7; type: cell-based; conditions: MCF7, 48 h
Procedure: as §1, §2, §3

Row | Compound | CC50 [1] [µM] | CC50 ([2]; Homo sapiens) [µM] | CC50 [2] [µM]
1 | CC(=O)Nc1ccc(S(=O)(=O)Nc2ccc(Nc3cc(N(C)C)nc(C)n3)cc2)cc1 [G3iA, N-(4-{[(4-{[6-(dimethylamino)-2-methylpyrimidin-4-yl]amino}phenyl)amino]sulfonyl}phenyl)acetamide] | > 100 | > 100 | 
2 | COc1ccccc1-n1c(/C=C/c2ccc(O)cc2)nc2ccc(Br)cc2c1=O [G3iB, 6-bromo-2-[(E)-2-(4-hydroxyphenyl)ethenyl]-3-(2-methoxyphenyl)quinazolin-4(3H)-one] | > 50 | < 50 | 42.6 ± 4.2
3 | Cc1cccnc1OC1CCN(c2cc(N3CCCC3CO)ncn2)CC1 (stereo not shown) [G3iC] | > 100 | > 50 | 
4 | Cc1cc(NC(=O)CCC2Cc3ccccc3NC2=O)nc(-c2ccccc2)n1 (stereo not shown) [G3iD] | > 100 | > 50 | 
5 | O=C(Nc1cccc(Cl)c1)c1cccc(NC(=O)c2cccc([N+](=O)[O-])c2)c1 [G3iE, N-{3-[(3-chloroanilino)carbonyl]phenyl}-3-nitrobenzamide] | > 50 | > 100 | 
6 | Cc1ccccc1CN(Cc1nnc(C(C)(C)C)o1)c1ccc2nc(O)[nH]c2c1 [G3iF] | ~100 | > 100 | 
